Test [1] has as its system Wnt pathway (Sp5-Luc reporter, TCF/LEF binding sites) in SW480 colon carcinoma cells. The test is described as follows: Screening assay for Wnt activity: Sp5-Luc reporter gene assay.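 For all read-outs here: firefly luciferase luminescence read in stably transduced SW480 cells carrying the Sp5 promoter reporter with eight TCF/LEF sites, compounds given in 0.1% DMSO final.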 Format: cell-based, human. To be noted: Homo sapiens; for inhibition at 10 µM: SW480, read-out: percent inhibition at 10 μM; for EC50: Sp5-Luc reporter, SW480 cells, 36 to 48 hours. In general terms: In a reporter assay the amount or activity of a reporter protein is the signal.
Procedure: The screening assay for Wnt activity is described as follows.
Following incubation, 15 μl of BriteLite Plus luminescence reagent (Perkin Elmer) was added to each well of the 384-well assay plates. The plates were placed on an orbital shaker for 2 min and then luminescence was quantified using the Envision (Perkin Elmer) plate reader.

Test [2] has as its target recombinant DYRK1A kinase (Homo sapiens (Human), UniProt Q13627). Description: DYRK1A kinase assay (Ser/Thr 18 peptide Z-lyte FRET).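 Note: Read-out is the coumarin to fluorescein emission ratio, referenced to unphosphorylated (0%) and phosphorylated (100%) Ser/Thr 18 peptide controls, values from dose-response curves by non-linear regression.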 It is filed as biochemical. The conditions noted are these: 30 μM ATP, 1 h room temperature.
Test [3] has as its target recombinant GSK3β kinase (Homo sapiens (Human), UniProt P49841). The test is described as follows: GSK3β kinase assay (Ser/Thr 09 peptide Z-lyte FRET).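 Note: kinase activity read as coumarin to fluorescein emission ratio, 11-point threefold dilutions from 10 µM to 0.0003 µM in duplicate, unphosphorylated and phosphorylated peptide as 0% and 100% controls.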 The conditions noted are these: 46 μM ATP, 1 h room temperature. It is filed as biochemical.
Test [4] concerns Tau phosphorylation at Ser396 (pSer396). Description: Tau phosphorylation assay (pSer396 ELISA / western blot) in SH-SY5Y cells.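 Note: EC50 for reduction of Tau pSer396 in lysed cells, measured by colorimetric ELISA or chemiluminescent western blot, both using the same pSer396 antibody.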 The conditions noted are these: Homo sapiens; SH-SY5Y cells, overnight (16-18 h) exposure; read-out: pSer396 Tau EC50. It is filed as cell-based, human. (In general: An ELISA detects its analyte on a solid surface through an enzyme-linked reagent.)
In test [5] the test system is SW480 colon carcinoma cells. The test is described as follows: Cell viability assay (CellTiter-Glo). To be noted: Homo sapiens; for EC50: 96 h, SW480 cells, CellTiter-Glo, four days incubation; for inhibition at 10 µM: SW480, read-out: percent inhibition at 10 μM. It is filed as cell-based, human. Background: Cellular ATP, detected with luciferase, serves as a proxy for viable cell number.

Test [6] relates to α-smooth muscle actin (αSMA) positive LL29 cells. The test is described as follows: Inhibition of fibrotic process: αSMA in TGF-β1 treated primary human fibroblasts from IPF patients.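 For all read-outs here: controls were TGF-β1 stimulated wells with DMSO vehicle (positive) and cells given DMSO alone (negative), cultured in F12 medium with 1% fetal bovine serum.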 It is filed as cell-based. To be noted: Homo sapiens, Fibroblast; for EC50: 96 h, Table 8, LL29 fibroblasts from IPF patients, TGF-β1 20 ng/mL, 4 days, dose-response 10 μM to 0.94 nM; for inhibition at 10 µM: read-out: percent value in parentheses beside EC50 >10 μM.

For test [7], the system named is IL-6. Description: IL-6 inhibition in LPS-stimulated human peripheral blood mononuclear cells (HTRF).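 For all read-outs here: IL-6 detected by HTRF with an XL665- and Cryptate-labelled anti-IL-6 antibody pair, samples run in duplicate, EC50 obtained from a four-parameter Levenberg-Marquardt curve fit.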 The conditions noted are these: Homo sapiens, PBMC; for inhibition at 10 µM: read-out: percent value in parentheses beside EC50 >10 μM; for EC50: Table 9, huPBMCs, LPS 50 ng/mL, 22 hours, dose-response starting from 10 μM. It is filed as cell-based.
Procedure: After 22 hour incubation, a mixture of anti-IL6 XL665 and anti-IL-6 Cryptate diluted in reconstitution buffer (Catalog #62IL6PEC, Cisbio Inc., Bedford, Mass.) was added to each well. […] All samples were processed in duplicate. […] EC50 was determined using software generated by Dotmatics Limited (Windhill Bishops Stortford Herts, UK) using the Levenberg-Marquardt 4 parameter fitting procedure with finite different gradients.

Bounds are passed on as bounds.

Sequence of recombinant GSK3β kinase (P49841 whole entry): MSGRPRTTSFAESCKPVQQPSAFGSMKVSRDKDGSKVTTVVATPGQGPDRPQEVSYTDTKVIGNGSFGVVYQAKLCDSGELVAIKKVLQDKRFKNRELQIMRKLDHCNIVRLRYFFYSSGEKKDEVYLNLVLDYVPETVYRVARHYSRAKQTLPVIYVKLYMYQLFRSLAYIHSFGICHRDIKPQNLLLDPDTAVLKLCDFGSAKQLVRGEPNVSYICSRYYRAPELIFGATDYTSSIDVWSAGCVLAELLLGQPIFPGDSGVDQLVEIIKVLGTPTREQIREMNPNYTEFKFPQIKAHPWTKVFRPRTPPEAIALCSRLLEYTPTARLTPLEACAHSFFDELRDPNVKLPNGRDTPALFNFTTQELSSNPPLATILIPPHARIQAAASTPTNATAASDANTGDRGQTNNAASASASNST

The term EC50 denotes the concentration that produces a half-maximal response. In the case of `Cn1cc(-c2ccc3cnc(NC(=O)C4CCN(CC(=O)O)CC4)cc3c2)cn1` [Compound 1011, 2-(4-((6-(1-Methyl-1H-pyrazol-4-yl)isoquinolin-3-yl)carbamoyl)piperidin-1-yl)acetic acid], the inhibition at 10 µM is 25% in test [1], 25% in test [5], 15.9% in test [6] and 15.3% in test [7]. For the same molecule, the EC50 in test [1] was greater than 10000 nM; in test [2], 2.6 nM; in test [3], 30 nM; in test [4] it was greater than 10000 nM; in test [5] it was greater than 10000 nM; in test [6], greater than 10000 nM. In test [7], this molecule yielded an EC50 greater than 10000 nM.
As to `CN1CCCN(CC(=O)Nc2cc3cc(-c4cnn(C)c4)ccc3cn2)CC1` [Compound 1012, 2-(4-Methyl-1,4-diazepan-1-yl)-N-(6-(1-methyl-1H-pyrazol-4-yl)isoquinolin-3-yl)acetamide], the EC50 in test [1] was 2720 nM; in test [2], 13 nM; in test [3] it was 155 nM; in test [4], 555 nM; in test [5] it was 3200 nM; in test [6], greater than 10000 nM. This molecule gave a concentration for a half-maximal effect (EC50) in test [7] of 3120 nM. In addition, the inhibition at 10 µM in test [6] amounted to 10.2%.
In the case of `Cn1cc(-c2cc3cc(NC(=O)C4CCNCC4)ncc3cc2Cl)cn1` [Compound 1013, N-(7-Chloro-6-(1-methyl-1H-pyrazol-4-yl)isoquinolin-3-yl)piperidine-4-carboxamide], the inhibition at 10 µM in test [1] is 42.9%. In addition, the EC50 in test [1] is greater than 10000 nM; in test [2], 17.1 nM; in test [3] it was 1430 nM; in test [4] it was 4200 nM; in test [5], 5500 nM; in test [6], 2440 nM. The molecule also had an EC50 in test [7] of 6820 nM.
Take `[2H]C([2H])([2H])n1cc(-c2ccc3cnc(NC(=O)CN4CCN(C)CC4)cc3c2)cn1` [Compound 1014, N-(6-(1-(Methyl-d3)-1H-pyrazol-4-yl)isoquinolin-3-yl)-2-(4-methylpiperazin-1-yl)acetamide]: the EC50 in test [1] was 2360 nM; in test [2], 9.4 nM; in test [3], 96 nM; in test [4], 767 nM; in test [5], 5420 nM; in test [6] it was 695 nM. Also, in test [7], the 50% effective concentration (EC50) worked out at 3200 nM.
Turning to `[2H]C([2H])([2H])n1cc(-c2cc3cc(NC(=O)CN4CCCCC4)ncc3cc2F)cn1` [Compound 1015, N-(7-Fluoro-6-(1-(methyl-d3)-1H-pyrazol-4-yl)isoquinolin-3-yl)-2-(piperidin-1-yl)acetamide], the EC50 was 3730 nM in test [1]; 5.8 nM in test [2]; 101 nM in test [3]; 523 nM in test [4]; 6420 nM in test [5]; greater than 10000 nM in test [6]. This molecule also yielded an EC50 in test [7] of 3120 nM. For the same molecule, the inhibition at 10 µM in test [6] stood at 9.7%.
`[2H]C([2H])([2H])n1cc(-c2cc(F)c3cnc(NC(=O)CN4CCCCC4)cc3c2)cn1` [Compound 1016, N-(8-Fluoro-6-(1-(methyl-d3)-1H-pyrazol-4-yl)isoquinolin-3-yl)-2-(piperidin-1-yl)acetamide]: the half-maximal effective concentration (EC50) in test [1] turned out to be 4060 nM; in test [2], 29.1 nM; in test [3], 87 nM; in test [4], 631 nM; in test [5], 6140 nM; in test [6] it was 2130 nM. The molecule also showed an EC50 in test [7] greater than 10000 nM. Moreover, the inhibition at 10 µM in test [7] worked out at 5.4%.
With `Cc1ncc(-c2ccc3cnc(NC(=O)[C@H]4CC[C@H](CN5CC(F)C5)CC4)cc3c2)o1` [Compound 1018, trans-4-((3-Fluoroazetidin-1-yl)methyl)-N-(6-(2-methyloxazol-5-yl)isoquinolin-3-yl)cyclohexane-1-carboxamide], the 50% effective concentration (EC50) in test [1] was determined as 608 nM; in test [2], 2.5 nM; in test [3], 54 nM; in test [4] it was 280 nM; in test [5], 498 nM; in test [6] it was 88 nM. For the same molecule, a half-maximal response in test [7] (EC50) required 441 nM.
On to `Cc1ncc(-c2ccc3cnc(NC(=O)CN4CCN(C)CC4)cc3c2)o1` [Compound 1019, N-(6-(2-Methyloxazol-5-yl)isoquinolin-3-yl)-2-(4-methylpiperazin-1-yl) acetamide], for which the EC50 turned out to be 3800 nM in test [1]; 28.9 nM in test [2]; 158 nM in test [3]; 1500 nM in test [4]; 9380 nM in test [5]; 6530 nM in test [6]. The same molecule registered a concentration for a half-maximal effect (EC50) in test [7] of 8970 nM.
Turning to `CC(C)CN1CCC(F)(C(=O)Nc2cc3cc(-c4cnc5n4CCNC5)ccc3cn2)CC1` [Compound 1021, 4-Fluoro-1-isobutyl-N-(6-(5,6,7,8-tetrahydroimidazo[1,2-a]pyrazin-3-yl)isoquinolin-3-yl)piperidine-4-carboxamide], the inhibition at 10 µM stood at 16.5% in test [1], 11.6% in test [5] and 5.1% in test [7]. Further, the EC50 is greater than 10000 nM in test [1]; 42.2 nM in test [2]; 1580 nM in test [3]; 5700 nM in test [4]; greater than 10000 nM in test [5]; 4490 nM in test [6]. In test [7], this molecule had an EC50 greater than 10000 nM.
Consider `O=C(Nc1cc2cc(-c3cnn4c3CN(CCF)CC4)ccc2cn1)C1CCNCC1` [Compound 1022, N-(6-(5-(2-Fluoroethyl)-4,5,6,7-tetrahydropyrazolo[1,5-a]pyrazin-3-yl)isoquinolin-3-yl)piperidine-4-carboxamide], for which the concentration for a half-maximal effect (EC50) is 1370 nM in test [1]; 4.2 nM in test [2]; 124 nM in test [3]; 9600 nM in test [4]; 3340 nM in test [5]; 222 nM in test [6]. Also, the EC50 in test [7] was 3290 nM.
`CC(C)CN1CCC(F)(C(=O)Nc2cc3cc(-c4cnn5c4CN(CCF)CC5)ccc3cn2)CC1` [Compound 1023, 4-Fluoro-N-(6-(5-(2-fluoroethyl)-4,5,6,7-tetrahydropyrazolo[1,5-a]pyrazin-3-yl)isoquinolin-3-yl)-1-isobutylpiperidine-4-carboxamide]: the figures for the inhibition at 10 µM in test [1], in test [5] and in test [7] were 38.2%, 39.9% and 20.7%, respectively. Besides, the 50% effective concentration (EC50) is greater than 10000 nM in test [1]; 8.7 nM in test [2]; 838 nM in test [3]; 1800 nM in test [4]; greater than 10000 nM in test [5]; 4670 nM in test [6]. Besides, the EC50 in test [7] is greater than 10000 nM.
Turning to `CN1CCN(CC(=O)Nc2cc3cc(-c4cnn5c4CN(CCF)CC5)ccc3cn2)CC1` [Compound 1024, N-(6-(5-(2-Fluoroethyl)-4,5,6,7-tetrahydropyrazolo[1,5-a]pyrazin-3-yl)isoquinolin-3-yl)-2-(4-methylpiperazin-1-yl)acetamide], the EC50 turned out to be 3510 nM in test [1]; 17 nM in test [2]; 150 nM in test [3]; 1200 nM in test [4]; 6770 nM in test [5]; 549 nM in test [6]. In test [7], this molecule showed a concentration for a half-maximal effect (EC50) greater than 10000 nM. In addition, the inhibition at 10 µM in test [7] was found to be 33.1%.
For `Cc1nnc(-c2ccc3cnc(NC(=O)CN4CC5CCC(C4)O5)cc3c2)s1` [Compound 1029, 2-(8-Oxa-3-azabicyclo[3.2.1]octan-3-yl)-N-(6-(5-methyl-1,3,4-thiadiazol-2-yl)isoquinolin-3-yl)acetamide], the EC50 was 3340 nM in test [1]; 25.7 nM in test [2]; 18 nM in test [3]; 239 nM in test [4]; greater than 10000 nM in test [5]; greater than 10000 nM in test [6]. For the same molecule, in test [7], the EC50 is greater than 10000 nM. In addition, the inhibition at 10 µM in test [5] was 34.6%; in test [6] it was 31.8%; in test [7] it was 7.3%.
For the molecule `C[C@@H]1CCCN1CC(=O)Nc1cc2cc(-c3cnc4n3CCNC4)ccc2cn1` [Compound 1030, (R)-2-(2-Methylpyrrolidin-1-yl)-N-(6-(5,6,7,8-tetrahydroimidazo[1,2-a]pyrazin-3-yl)isoquinolin-3-yl)acetamide], the inhibition at 10 µM turned out to be 44.8% in test [1], 19.3% in test [5] and 7.7% in test [7]. Further, the half-maximal effective concentration (EC50) is greater than 10000 nM in test [1]; 194 nM in test [2]; 390 nM in test [3]; 1200 nM in test [4]; greater than 10000 nM in test [5]; 2810 nM in test [6]. This molecule also registered a concentration giving a half-maximal response (EC50) in test [7] greater than 10000 nM.
For `CN(CC(=O)Nc1cc2cc(-c3cnc4n3CCNC4)ccc2cn1)C1CCC1` [Compound 1031, 2-(Cyclobutyl(methyl)amino)-N-(6-(5,6,7,8-tetrahydroimidazo[1,2-a]pyrazin-3-yl)isoquinolin-3-yl)acetamide], the EC50 in test [1] is 3970 nM; in test [2], 70.4 nM; in test [3], 380 nM; in test [4] it was 969 nM; in test [5], 3890 nM; in test [6], greater than 10000 nM. In addition, the half-maximal effective concentration (EC50) in test [7] was greater than 10000 nM. For the same molecule, the inhibition at 10 µM stood at 39.2% in test [6] and 2% in test [7].
